# According to article PMC11742080, “Decavanadate Compound Displays In Vitro and In Vivo Antitumor Effect on Melanoma Models” (Bioinorganic Chemistry and Applications, 2025):
# Several values for one entry are separate records, joined by “and”; a condition that tells them apart may be missing. Equal values may be shown once.
# Key:
# [1] = tested on: DMBA/croton oil-induced skin lesions in Swiss albino mice; experiment: Chemical-induced (DMBA/croton oil) lesion model in mice; format: in vivo; details: cotreatment, 2.5 mg/kg s.c.
# Procedure: Two days before the beginning of the experiment, we selected 32 male Swiss albino mice and clipped the hair on their backs in a 2 × 2 cm^2 area. The design of the experiment was performed as reported by Vähätupa et al. (Figure S1). The animals were randomly divided into […] (8 animals in each group): • i. CTR− group: represented the negative CTR group, where mice received 100 μL of acetone only. • ii. CTR+ group: served as the positive CTR group, where mice were treated […] with a single dose of DMBA (50 μg/100 μL acetone) on the shaven area on their backs. Seven days later, croton oil (50 μL/100 μL acetone) was applied twice a week until the end of the experiment (6 weeks). • iii. CT group (cotreatment group): animals received a single dose of DMBA (50 μg/100 μL acetone) on the shaven area on their backs. Seven days later, croton oil (50 μL/100 μL acetone) was applied twice. Then, mice received croton oil and 2.5 mg/kg of the decavanadate compound (dissolved in PBS) by subcutaneous injection on their backs. The Mg2Na2V10O28·20H2O compound was given to animals 15 min after each croton oil application from the third week until the sixth week (the end of the protocol).
# Swiss albino mice = experiment: In vivo toxicity/safety assessment, 12 days i.p.; details: for ALT / AST / Creatinine: plasma
# Procedure: In order to investigate the safety of the Mg2Na2V10O28·20H2O compound, three doses of 20, 50, and 100 μg were tested on male Swiss albino mice of ∼20 g weight each. Mice were randomly allocated in four groups of eight mice each. These doses correspond to 1, 2.5, and 5 mg/kg, respectively. A stock solution of 7.5 mg/mL (5.5 mM) was first prepared in PBS (1x). Dilutions were done to obtain 3 solutions of 0.2 mg/mL (146 μM), 0.5 mg/mL (366 μM), and 1 mg/mL (732 μM) in PBS, from which a volume of 100 μL was injected to each mouse, corresponding to the three doses. These doses were chosen based on our previous study. Mice of the CTR group received 100 μL of PBS. Decavanadate compound or vehicle was administered daily by intraperitoneal injection for 12 consecutive days in the morning between 09:00 and 10:00 a.m.
# Animals were observed individually for general behavior, toxicity symptoms, and mortality during the first 30 min and then daily during the experiment. The body weights were measured at the beginning and at the end of the […]. On Day 12, blood samples were drawn from the facial vein of each mouse, using capillary tubes, containing heparin (as an anticoagulant component), for biochemical parameters studies. Mice were then sacrificed by cervical dislocation, and their organs (liver and kidney) were excised. The organs were then fixed in 10% buffered formalin for histopathological examination.
# Plasma samples were obtained by blood centrifugation at 3000 rpm for 10 min and kept at −20°C. The activities of hepatic enzymes, such as aspartate aminotransferase (AST) and alanine aminotransferase (ALT), and creatinine levels were assessed with commercially available diagnostic kits supplied by Biomaghreb Laboratories (Tunisia). Enzymatic activity was expressed in international units per liter (IU/L). Additionally, we focused on measuring the activity of enzymes involved in hepatic metabolism to evaluate the effect of decavanadate accumulation on liver function. Creatinine level was expressed in mg/L.
# Liver and kidney organs in formalin were washed and dehydrated using alcohol. Paraffin-embedded sections were cut at 5-6 μm thickness and stained with hematoxylin and eosin for microscopic examination at 20x and 40x magnification.
substance,measurement,setting,value
dimagnesium disodium decavanadate icosahydrate [Mg2Na2V10O28·20H2O],Skin histology (dermal inflammatory infiltrate),[1],attenuation of this inflammatory state
same,Mortality and behavior in DMBA/croton oil-treated mice,[1]; 6-week protocol,neither mortality nor changes in the behavior
same,Liver histological analysis,"Swiss albino mice; 50 μg (2.5 mg/kg), 12 days",necrosis
same,Liver histological analysis,"Swiss albino mice; 100 μg (5 mg/kg), 12 days",lymphohistiocytic inflammatory infiltrate in the portal tract
same,"Biochemical parameters (AST, ALT, creatinine) versus control","Swiss albino mice; 1 mg/kg i.p. daily, 12 days",comparable to the negative CTR
same,ALT,"Swiss albino mice; 2.5 mg/kg i.p. daily, 12 days",48.75 ± 2.96 IU/L
same,AST,"Swiss albino mice; 2.5 mg/kg i.p. daily, 12 days",32.83 ± 1.09 IU/L
same,Creatinine,"Swiss albino mice; 2.5 mg/kg i.p. daily, 12 days",2.45 mg/L and 2.45 ± 0.28^∗ mg/L
same,Kidney histology,"Swiss albino mice; 2.5 mg/kg, 12 days",no difference compared to those of the CTR group
same,ALT,"Swiss albino mice; 5 mg/kg i.p. daily, 12 days",81.67 ± 5.12^∗∗∗ IU/L
same,AST,"Swiss albino mice; 5 mg/kg i.p. daily, 12 days",45.63 ± 1.21^∗∗ IU/L
same,Creatinine,"Swiss albino mice; 5 mg/kg i.p. daily, 12 days",2.80 ± 0.312^∗∗ mg/L
same,Kidney histology,"Swiss albino mice; 5 mg/kg, 12 days",mild interstitial lymphocytic inflammatory infiltrate
same,"Mortality and signs of toxicity (weight loss, behavioral abnormalities)","Swiss albino mice; 1, 2.5 or 5 mg/kg, i.p. daily for 12 days, Swiss albino mice",No mortality or signs of toxicity
